Data on 34 compounds can be found in PubChem BioAssay AID850 (SRMLSC, 2007).

Activity calls are given as the source filed them. No rule for the calls is given here.

Assay [1] in a line: concentration-response yeast growth inhibition under permissive conditions, counter-assay for yeast lifespan-shortening chemical project (AID 850).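 Also: growth read as optical density after one day of incubation.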 The following applies: Saccharomyces cerevisiae growth inhibition, permissive control, measured here: maximum growth inhibition, stronger effect = higher value.
The subject of assay [2] is Saccharomyces cerevisiae growth inhibition, permissive control. Described as above.

Usually inhibition stands for the change of the read-out against control, counted positive when it falls. The IC50 is the concentration at which inhibition is half-maximal.

Turning to `O=C(Nc1nc(-c2ccccn2)cs1)c1ccc(Cl)s1`, the inhibition in assay [1] (at 12.5 µM) worked out at 91.4%. The IC50 in assay [2] was 2.09 µM.
For `Cc1ccc(-c2nc3sc(C(N)=O)c(N)c3c3c2CCCC3)cc1`, the inhibition in assay [1] (at 50 µM) is 14.4%. Also, the IC50 in assay [2] is > 100 µM (inactive).
Regarding `Cc1nc2ccccc2c2c1C(=O)N(C)C2=O`, the inhibition in assay [1] (at 12.5 µM) turned out to be 20.3%. The IC50 in assay [2] was > 100 µM (inactive).
Regarding `CCCCC(=O)NNC(=S)NC(=O)CCC`, the inhibition in assay [1] (at 50 µM) came out at 75.2%. For the same compound, the IC50 in assay [2] is 29.7 µM.
The corresponding values for `COc1ccc2c(C)nc(Nc3nc(C)c(C)c(=O)[nH]3)nc2c1` are 50.7% and 44.6 µM.
The matching figures for `CCc1cc2c(=O)[nH]c(-c3ccccn3)nc2s1`: 86.2% and 23.6 µM.
On to `Clc1cccc(CN2COc3c(cc(Cl)c4cccnc34)C2)c1`, for which the inhibition in assay [1] (at 50 µM) is 101%. For the same compound, the IC50 in assay [2] was 6.88 µM.
With `O=C(c1cc(-c2ccccc2O)on1)N1CCc2ccccc2C1`, the inhibition in assay [1] (at 0.391 µM) is 16.3%. In addition, the IC50 in assay [2] is > 100 µM (inactive).
As to `CCCn1c(CNc2ccccc2O)nc2ccccc21`, the inhibition in assay [1] (at 50 µM) was determined as 18.9%. In addition, the IC50 in assay [2] was > 100 µM (inactive).
With `O=C1c2ccc3c4c(ccc(c24)C(=O)N1NC(=O)C(F)(F)F)CC3`, in assay [1] (at 0.195 µM), the inhibition stood at 15.2%. Besides, the IC50 in assay [2] was > 100 µM (inactive).
Regarding `CCc1ccc(/C=C/C(=O)c2cc(Br)ccc(=O)c2O)cc1`, in assay [1] (at 50 µM), the inhibition turned out to be 83.6%. In addition, the IC50 in assay [2] was 13.3 µM.
`Fc1ccc(-c2ccc(-c3nn4c(-c5ccco5)nnc4s3)o2)cc1`: the inhibition in assay [1] (at 6.25 µM) amounted to 13.4%. For the same compound, the IC50 in assay [2] is > 100 µM (inactive).
For the compound `COCC(C)OC(=O)/C(C#N)=C\c1coc2ccc(C)cc2c1=O` (stereo not drawn), the inhibition in assay [1] (at 50 µM) came out at 16.6%. The IC50 in assay [2] is > 100 µM (inactive).
The corresponding values for `COc1ccc(-c2cc3nc(C)cc(N4CC(C)CC(C)C4)n3n2)cc1` (stereo not drawn) are 48.3% and 50.7 µM.
The corresponding values for `O=C1c2ccccc2-c2nc3ccccc3nc21` are 27.3% and > 100 µM (inactive).
The corresponding values for `O=C1c2ccccc2NC(c2ccc(-c3cccc(Cl)c3)o2)N1O` (stereo not drawn) are 52.3% and 47.1 µM.
With `C=CCC1c2cccc(C(=O)O)c2C(=O)N1c1cccc(C)c1` (stereo not drawn), the inhibition in assay [1] (at 25 µM) stood at 44.4%. Besides, the IC50 in assay [2] was 49.7 µM.
On to `C(=C\c1nc(N2CCCCCC2)c2ccccc2n1)/c1ccccc1`, for which the inhibition in assay [1] (at 50 µM) was determined as 78.2%. Moreover, the IC50 in assay [2] was 39.2 µM.
As to `S=C(NCc1ccc(Cl)cc1)NC12CC3CC(CC(C3)C1)C2`, the inhibition in assay [1] (at 0.195 µM) was found to be 14.1%. In addition, the IC50 in assay [2] is > 100 µM (inactive).
Regarding `Cn1cccc1Cc1nnc(SCC(=O)Nc2nccs2)n1CCc1ccccc1`, the inhibition in assay [1] (at 6.25 µM) was found to be 29%. Moreover, the IC50 in assay [2] was > 100 µM (inactive).
In the case of `CCCCCCCCC/C(=N\O)c1ccccn1`, the inhibition in assay [1] (at 50 µM) worked out at 101%. The IC50 in assay [2] is 5.48 µM.
The corresponding values for `COc1ccc(C(=O)C(C)(C)NO)cc1` are 50.7% and 46.8 µM.
As to `COc1ccc(-c2cc(-c3ccccc3O)[nH]n2)cc1`, the inhibition in assay [1] (at 1.563 µM) is 3.65%. In assay [2], the IC50 was > 100 µM (inactive).
As for `CC(C)c1ccc(NC(=S)NCCc2c[nH]c3ccccc23)cc1`, in assay [1] (at 3.125 µM), the inhibition was 20.3%. Moreover, the IC50 in assay [2] was > 100 µM (inactive).
Regarding `CC(=O)O/N=C/c1c(N2CCOCC2)n(C)c2ccccc12`, in assay [1] (at 50 µM), the inhibition came to 96.5%. The IC50 in assay [2] was 17.5 µM.
The matching figures for `CC/C(C)=N/Nc1cccc([N+](=O)[O-])c1`: 98.4% and 4.11 µM.
Regarding `Cc1cc(C(=O)N/N=C/c2cccc([N+](=O)[O-])c2O)n[nH]1`, in assay [1] (at 6.25 µM), the inhibition came out at 19.4%. In assay [2], the IC50 was > 100 µM (inactive).
On to `Cc1ccc(/C(N)=N/OC(=O)c2ccc(Cl)cc2Cl)cc1`, for which the inhibition in assay [1] (at 50 µM) amounted to 98.8%. In assay [2], the IC50 was 19.8 µM.
The corresponding values for `Cc1nc2ccccc2c2nc3ccccc3n12` are 63.9% and 38.5 µM.
Consider `Clc1ccc2[nH]c3c(c2c1)CCc1cn[nH]c1-3`, for which, in assay [1] (at 25 µM), the inhibition stood at 93.8%. Further, the IC50 in assay [2] is 5.72 µM.
Turning to `O=C(c1ccc(Cl)cc1)c1c[nH]c(C(=O)C(Cl)(Cl)Cl)c1`, the inhibition in assay [1] (at 50 µM) came out at 77.6%. In addition, the IC50 in assay [2] is 47.4 µM.
As for `CC1(CCc2ccccc2)NC(=S)N(c2ccc(Cl)cc2)N1` (stereo not drawn), in assay [1] (at 50 µM), the inhibition was 99.6%. The IC50 in assay [2] is 20.1 µM.
Consider `O=c1c(-c2ccc(Cl)cc2)[n+]([O-])c2ccccc2n1O`, for which the inhibition in assay [1] (at 25 µM) was 99.8%. Also, the IC50 in assay [2] was 7.82 µM.
`COCCN1CSC(=S)N(Cc2ccco2)C1`: in assay [1] (at 50 µM), the inhibition amounted to 64.7%. For the same compound, the IC50 in assay [2] is 34.5 µM.
